According to ChEMBL document CHEMBL4020831, “Discovery of GDC-0853: A Potent, Selective, and Noncovalent Bruton's Tyrosine Kinase Inhibitor in Early Clinical Development” (J Med Chem, 2018):
≈ marks a conversion by molar mass, not a printed value. Calls of active or inactive are those of the source. The calls are words filed in the database; no cut-off is given here.

Key:
[1] = tested on: Homo sapiens; assay: Toxicity in human at 500 mg administered qd for 14 days; conditions: in vivo, 336 h
[2] = tested on: Homo sapiens; assay: Toxicity in human at 250 mg administered bid for 14 days; conditions: in vivo, 336 h
[3] = Permeability across apical to basolateral in MDCK1 cells; assay type: ADME, cell-based, Canis lupus familiaris; conditions: dog, MDCK; read-out: permeability
[4] = Aqueous solubility of the compound; assay type: physicochemical; conditions: buffer
[5] = Aqueous solubility of the compound in 0.1 N HCl; assay type: physicochemical; conditions: buffer
[6] = Plasma clearance in rat at 0.2 mg/kg, iv or 1 mg/kg, po administered as single dose via cassette dosing; assay type: ADME, organism-based
[7] = target: Nav1.5 (Homo sapiens, UniProt Q14524); assay: Inhibition of human Nav1.5 expressed in CHO cells at 10 uM incubated for 3 to 5 mins by QPatch clamp assay; assay type: cell-based; conditions: CHO cells expressing human Nav1.5
[8] = tested on: Salmonella typhimurium; assay: Genotoxicity in Salmonella typhimurium TA98 after 48 to 72 hrs in presence of liver S9 fraction by Ames test; assay type: toxicity; conditions: salmonella enterica subsp. enterica serovar typhimurium
[9] = tested on: Escherichia coli; assay: Genotoxicity in Escherichia coli WP2 harboring uvrA deletion mutant after 48 to 72 hrs in presence of liver S9 fraction by Ames test; assay type: toxicity
[10] = tested on: Salmonella typhimurium; assay: Genotoxicity in Salmonella typhimurium TA100 after 48 to 72 hrs in absence of liver S9 fraction by Ames test; assay type: toxicity; conditions: salmonella enterica subsp. enterica serovar typhimurium
[11] = tested on: Salmonella typhimurium; assay: Genotoxicity in Salmonella typhimurium TA1535 after 48 to 72 hrs in absence of liver S9 fraction by Ames test; assay type: toxicity; conditions: salmonella enterica subsp. enterica serovar typhimurium
[12] = tested on: Salmonella typhimurium; assay: Genotoxicity in Salmonella typhimurium TA97a after 48 to 72 hrs in absence of liver S9 fraction by Ames test; assay type: toxicity; conditions: salmonella enterica subsp. enterica serovar typhimurium
[13] = tested on: PBL; assay: Genotoxicity in human PBL assessed as induction of micronuclei at 500 ug/ml in absence of rat liver S9 fraction by cytochalasin B-block method; assay type: toxicity, cell-based
[14] = target: Cytochrome P450 2C9 (Homo sapiens, UniProt P11712); assay: Inhibition of CYP2C9 (unknown origin); assay type: ADME
[15] = target: BLK (Homo sapiens, UniProt P51451); assay: Inhibition of recombinant human full length His-tagged BLK expressed in baculovirus at 1 uM by Z'-LYTE assay
[16] = target: ERBB4 (Homo sapiens, UniProt Q15303); assay: Inhibition of recombinant human cytoplasmic GST-tagged ERBB4 expressed in baculovirus at 1 uM by Z'-LYTE assay
[17] = target: T1, TEC (Homo sapiens, UniProt P42680); assay: Inhibition of recombinant human cytoplasmic full length His-tagged TEC expressed in baculovirus at 1 uM by Z'-LYTE assay
T1 sequence (P42680 whole entry): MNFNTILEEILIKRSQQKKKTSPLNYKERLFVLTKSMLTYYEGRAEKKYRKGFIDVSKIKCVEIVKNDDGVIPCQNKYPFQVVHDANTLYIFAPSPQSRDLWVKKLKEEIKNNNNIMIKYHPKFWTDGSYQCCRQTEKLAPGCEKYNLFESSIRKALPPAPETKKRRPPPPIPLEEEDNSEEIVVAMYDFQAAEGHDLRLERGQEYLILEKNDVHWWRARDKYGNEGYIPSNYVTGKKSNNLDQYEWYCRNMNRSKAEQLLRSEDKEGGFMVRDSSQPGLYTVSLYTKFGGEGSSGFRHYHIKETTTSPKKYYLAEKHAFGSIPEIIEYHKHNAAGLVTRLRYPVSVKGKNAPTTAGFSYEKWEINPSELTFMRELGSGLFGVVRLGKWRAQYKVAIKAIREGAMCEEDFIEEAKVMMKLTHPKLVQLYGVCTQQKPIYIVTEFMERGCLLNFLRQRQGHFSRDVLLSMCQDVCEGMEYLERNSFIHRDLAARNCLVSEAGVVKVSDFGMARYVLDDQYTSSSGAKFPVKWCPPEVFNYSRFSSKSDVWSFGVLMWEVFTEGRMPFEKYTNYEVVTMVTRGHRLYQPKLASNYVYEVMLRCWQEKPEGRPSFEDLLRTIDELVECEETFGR

[18] = tested on: Rattus norvegicus; assay: Antiinflammatory activity in po dosed Lewis rat collagen-induced arthritis model assessed as reduction in ankle thickness administered qd for 16 days; assay type: functional, organism-based
[19] = tested on: Rattus norvegicus; assay: Antiinflammatory activity in po dosed Lewis rat collagen-induced arthritis model assessed as reduction in ankle thickness administered bid for 16 days; assay type: functional, organism-based
[20] = tested on: Rattus norvegicus; assay: Antiinflammatory activity in Lewis rat collagen-induced arthritis model assessed as reduction in ankle diameter AUC at 16 mg/kg, po administered qd for 16 days relative to control; assay type: functional; conditions: 384 h
[21] = tested on: Rattus norvegicus; assay: Antiinflammatory activity in Lewis rat collagen-induced arthritis model assessed as reduction in ankle diameter AUC at 4 mg/kg, po administered qd for 16 days relative to control; assay type: functional; conditions: 384 h
[22] = tested on: Rattus norvegicus; assay: Antiinflammatory activity in Lewis rat collagen-induced arthritis model assessed as reduction in ankle diameter AUC at 1 mg/kg, po administered qd for 16 days relative to control; assay type: functional; conditions: 384 h
[23] = tested on: Rattus norvegicus; assay: Antiinflammatory activity in Lewis rat collagen-induced arthritis model assessed as reduction in ankle diameter AUC at 0.25 mg/kg, po administered qd for 16 days relative to control; assay type: functional; conditions: 384 h
[24] = tested on: Rattus norvegicus; assay: Antiinflammatory activity in Lewis rat collagen-induced arthritis model assessed as reduction in ankle diameter AUC at 2 mg/kg, po administered bid for 16 days relative to control; assay type: functional; conditions: 384 h
[25] = tested on: Rattus norvegicus; assay: Antiinflammatory activity in Lewis rat collagen-induced arthritis model assessed as reduction in ankle diameter AUC at 0.125 mg/kg, po administered bid for 16 days relative to control; assay type: functional; conditions: 384 h
[26] = tested on: Rattus norvegicus; assay: Time at which plasma concentration stays above IC90 for BTK autophosphorylation at Y223 in rat whole blood in Lewis rat collagen-induced arthritis model at 0.125 to 2 mg/kg, po bid measured during 12 hrs dosing
[27] = tested on: Rattus norvegicus; assay: Time at which plasma concentration stays above in vitro IC70 for BTK autophosphorylation at Y223 in rat whole blood in Lewis rat collagen-induced arthritis model at 1 mg/kg, po bid measured during 24 hrs dosing
[28] = tested on: Rattus norvegicus; assay: Antiinflammatory activity in Lewis rat collagen-induced arthritis model assessed as reduction in ankle pannus at 0.06 to 16 mg/kg, po administered qd for 16 days; assay type: functional, organism-based
[29] = tested on: Rattus norvegicus; assay: Antiinflammatory activity in Lewis rat collagen-induced arthritis model assessed as reduction in ankle pannus at 0.125 to 2 mg/kg, po administered bid for 16 days; assay type: functional, organism-based
[30] = tested on: Rattus norvegicus; assay: Antiinflammatory activity in Lewis rat collagen-induced arthritis model assessed as reduction in ankle inflammation at 0.125 to 2 mg/kg, po administered bid for 16 days; assay type: functional, organism-based
[31] = tested on: Rattus norvegicus; assay: Antiinflammatory activity in Lewis rat collagen-induced arthritis model assessed as reduction in ankle cartilage damage at 0.125 to 2 mg/kg, po administered bid for 16 days; assay type: functional, organism-based
[32] = tested on: Rattus norvegicus; assay: Antiinflammatory activity in Lewis rat collagen-induced arthritis model assessed as reduction in bone resorption at 0.125 to 2 mg/kg, po administered bid for 16 days; assay type: functional, organism-based
[33] = Clearance in human liver microsomes at 1 uM incubated up to 60 mins by LC-MS/MS method; assay type: ADME, microsome
[34] = Clearance in human hepatocytes at 1 uM incubated up to 60 mins by LC-MS/MS method; assay type: ADME, cell-based, Hepatocyte
[35] = physchem; conditions: buffer, pH 7.4

Chain of Cytochrome P450 2C9 (P11712 whole entry): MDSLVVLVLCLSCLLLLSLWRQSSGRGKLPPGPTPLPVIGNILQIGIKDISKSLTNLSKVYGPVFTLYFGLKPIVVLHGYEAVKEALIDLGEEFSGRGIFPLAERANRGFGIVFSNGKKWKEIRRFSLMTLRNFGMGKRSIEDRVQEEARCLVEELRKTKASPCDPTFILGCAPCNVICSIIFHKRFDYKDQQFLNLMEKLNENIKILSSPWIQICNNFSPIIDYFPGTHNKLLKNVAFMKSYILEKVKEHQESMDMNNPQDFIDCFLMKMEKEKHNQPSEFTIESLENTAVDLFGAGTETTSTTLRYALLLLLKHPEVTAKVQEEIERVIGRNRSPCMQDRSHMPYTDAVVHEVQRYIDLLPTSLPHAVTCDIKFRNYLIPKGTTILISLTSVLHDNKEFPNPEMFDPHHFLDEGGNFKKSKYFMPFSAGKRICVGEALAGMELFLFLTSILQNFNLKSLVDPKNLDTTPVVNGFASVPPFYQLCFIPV
Chain of Nav1.5 (Q14524 whole entry): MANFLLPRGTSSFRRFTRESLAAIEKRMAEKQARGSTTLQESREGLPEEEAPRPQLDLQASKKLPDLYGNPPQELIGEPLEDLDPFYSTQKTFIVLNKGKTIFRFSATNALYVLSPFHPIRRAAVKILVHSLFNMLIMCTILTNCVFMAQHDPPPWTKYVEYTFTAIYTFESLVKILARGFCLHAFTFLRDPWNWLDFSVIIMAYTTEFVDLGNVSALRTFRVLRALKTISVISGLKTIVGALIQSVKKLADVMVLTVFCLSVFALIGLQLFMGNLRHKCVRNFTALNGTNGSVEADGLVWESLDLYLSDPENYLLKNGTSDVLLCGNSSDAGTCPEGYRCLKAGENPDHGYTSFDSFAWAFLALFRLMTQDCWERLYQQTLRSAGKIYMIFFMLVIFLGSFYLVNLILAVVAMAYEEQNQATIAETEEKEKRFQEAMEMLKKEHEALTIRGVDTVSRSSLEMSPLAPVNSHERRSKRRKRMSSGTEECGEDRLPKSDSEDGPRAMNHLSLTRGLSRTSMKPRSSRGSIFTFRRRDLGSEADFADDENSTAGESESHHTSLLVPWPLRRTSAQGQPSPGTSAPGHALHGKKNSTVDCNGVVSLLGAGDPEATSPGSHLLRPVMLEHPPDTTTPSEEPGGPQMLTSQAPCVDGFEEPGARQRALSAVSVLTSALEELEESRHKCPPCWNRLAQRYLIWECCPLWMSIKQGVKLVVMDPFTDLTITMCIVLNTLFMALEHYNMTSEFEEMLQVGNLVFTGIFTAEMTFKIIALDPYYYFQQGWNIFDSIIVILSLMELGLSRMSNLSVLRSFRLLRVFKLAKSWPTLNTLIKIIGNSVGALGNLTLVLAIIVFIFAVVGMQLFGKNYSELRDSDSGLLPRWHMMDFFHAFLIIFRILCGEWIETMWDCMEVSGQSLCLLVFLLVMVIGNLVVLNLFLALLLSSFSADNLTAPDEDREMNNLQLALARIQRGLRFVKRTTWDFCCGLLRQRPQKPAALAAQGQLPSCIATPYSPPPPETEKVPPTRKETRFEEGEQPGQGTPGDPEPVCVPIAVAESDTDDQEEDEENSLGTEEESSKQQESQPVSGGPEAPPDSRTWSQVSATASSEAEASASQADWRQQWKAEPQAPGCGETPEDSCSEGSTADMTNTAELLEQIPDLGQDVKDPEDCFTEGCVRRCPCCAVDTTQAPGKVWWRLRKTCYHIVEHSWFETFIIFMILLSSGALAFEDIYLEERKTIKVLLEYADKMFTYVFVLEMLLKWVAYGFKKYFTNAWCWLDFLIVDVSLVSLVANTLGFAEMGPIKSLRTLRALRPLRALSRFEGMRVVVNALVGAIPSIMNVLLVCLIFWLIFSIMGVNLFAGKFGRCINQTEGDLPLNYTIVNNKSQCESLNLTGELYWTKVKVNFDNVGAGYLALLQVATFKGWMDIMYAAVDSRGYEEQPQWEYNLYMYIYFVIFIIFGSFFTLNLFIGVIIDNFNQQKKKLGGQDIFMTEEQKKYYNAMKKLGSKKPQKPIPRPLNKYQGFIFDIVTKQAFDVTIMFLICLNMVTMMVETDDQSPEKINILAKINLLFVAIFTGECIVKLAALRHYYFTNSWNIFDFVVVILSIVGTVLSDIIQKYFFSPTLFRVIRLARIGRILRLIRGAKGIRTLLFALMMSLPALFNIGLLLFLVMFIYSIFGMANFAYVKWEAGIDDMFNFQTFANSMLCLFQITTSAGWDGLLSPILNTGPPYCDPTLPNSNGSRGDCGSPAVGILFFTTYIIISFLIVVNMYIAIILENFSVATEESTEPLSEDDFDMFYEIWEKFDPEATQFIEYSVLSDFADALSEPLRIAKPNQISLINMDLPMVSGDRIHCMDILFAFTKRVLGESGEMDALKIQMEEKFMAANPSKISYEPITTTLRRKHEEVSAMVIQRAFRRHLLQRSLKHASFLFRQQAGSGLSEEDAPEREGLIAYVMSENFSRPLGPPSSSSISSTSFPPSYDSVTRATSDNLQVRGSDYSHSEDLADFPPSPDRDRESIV
Chain of BLK (P51451 whole entry): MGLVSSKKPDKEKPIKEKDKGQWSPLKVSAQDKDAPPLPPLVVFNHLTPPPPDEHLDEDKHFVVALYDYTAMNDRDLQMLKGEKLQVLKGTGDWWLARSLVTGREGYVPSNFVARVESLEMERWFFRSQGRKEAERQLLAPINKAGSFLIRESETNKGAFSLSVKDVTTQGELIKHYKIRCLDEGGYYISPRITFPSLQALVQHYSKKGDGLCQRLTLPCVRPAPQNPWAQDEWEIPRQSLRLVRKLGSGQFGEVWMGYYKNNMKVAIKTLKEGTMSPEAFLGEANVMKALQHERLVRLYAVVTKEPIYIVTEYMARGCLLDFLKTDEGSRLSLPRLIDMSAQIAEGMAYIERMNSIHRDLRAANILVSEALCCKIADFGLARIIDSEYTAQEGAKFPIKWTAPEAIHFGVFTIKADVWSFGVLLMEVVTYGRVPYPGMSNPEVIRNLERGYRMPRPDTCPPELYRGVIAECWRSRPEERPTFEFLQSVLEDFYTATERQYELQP
Chain of ERBB4 (Q15303 whole entry): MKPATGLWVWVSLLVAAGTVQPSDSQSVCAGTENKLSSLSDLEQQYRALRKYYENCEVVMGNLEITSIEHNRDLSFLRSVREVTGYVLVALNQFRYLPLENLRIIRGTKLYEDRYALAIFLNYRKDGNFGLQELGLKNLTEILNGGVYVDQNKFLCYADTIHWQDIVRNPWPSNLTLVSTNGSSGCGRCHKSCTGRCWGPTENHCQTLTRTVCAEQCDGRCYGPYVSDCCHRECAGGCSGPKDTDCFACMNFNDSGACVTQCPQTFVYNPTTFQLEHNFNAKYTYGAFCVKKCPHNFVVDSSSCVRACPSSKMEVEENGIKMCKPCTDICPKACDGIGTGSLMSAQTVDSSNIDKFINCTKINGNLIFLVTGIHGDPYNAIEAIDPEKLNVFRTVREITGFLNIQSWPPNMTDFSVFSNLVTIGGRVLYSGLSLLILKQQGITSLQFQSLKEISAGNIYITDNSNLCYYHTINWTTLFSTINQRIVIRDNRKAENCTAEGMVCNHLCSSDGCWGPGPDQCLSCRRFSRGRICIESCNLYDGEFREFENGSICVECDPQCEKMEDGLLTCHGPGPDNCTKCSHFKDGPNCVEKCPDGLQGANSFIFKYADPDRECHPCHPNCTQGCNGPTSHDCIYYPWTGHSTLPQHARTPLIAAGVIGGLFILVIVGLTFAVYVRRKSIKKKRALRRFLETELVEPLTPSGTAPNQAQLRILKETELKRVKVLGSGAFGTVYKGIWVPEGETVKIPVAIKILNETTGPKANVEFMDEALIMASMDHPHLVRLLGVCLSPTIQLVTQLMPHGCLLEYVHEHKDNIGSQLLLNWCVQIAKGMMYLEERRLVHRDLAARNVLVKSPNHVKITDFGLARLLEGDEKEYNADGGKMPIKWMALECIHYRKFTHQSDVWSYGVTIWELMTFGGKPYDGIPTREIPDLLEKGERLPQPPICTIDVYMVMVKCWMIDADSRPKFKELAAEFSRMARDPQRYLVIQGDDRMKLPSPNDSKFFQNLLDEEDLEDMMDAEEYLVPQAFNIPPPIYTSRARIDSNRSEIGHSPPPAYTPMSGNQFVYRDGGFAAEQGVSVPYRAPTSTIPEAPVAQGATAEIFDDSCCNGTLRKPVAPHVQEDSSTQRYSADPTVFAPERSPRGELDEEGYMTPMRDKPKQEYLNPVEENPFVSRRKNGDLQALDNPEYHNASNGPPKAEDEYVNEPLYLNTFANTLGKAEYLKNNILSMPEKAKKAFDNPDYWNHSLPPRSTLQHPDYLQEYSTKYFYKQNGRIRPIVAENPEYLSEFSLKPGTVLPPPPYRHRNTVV

SMILES: C[C@H]1CN(C2COC2)CCN1c1ccc(Nc2cc(-c3ccnc(N4CCn5c(cc6c5CC(C)(C)C6)C4=O)c3CO)cn(C)c2=O)nc1 [FENEBRUTINIB]
- Activity [1]: Non-Toxic
- Activity [2]: Non-Toxic
- Papp A→B [3]: 15.1 ×10⁻⁶ cm/s
- solubility [4]: 3 µg/mL (≈ 4.51 µM)
- solubility [5]: 35900 µg/mL (≈ 54000 µM)
- clearance [6]: 27.4 mL/min/kg
- inhibition at 10 µM [7]: 1.9%
- Activity [8]: Non-Toxic
- Activity [9]: Non-Toxic
- Activity [10]: Non-Toxic
- Activity [11]: Non-Toxic
- Activity [12]: Non-Toxic
- Activity [13]: Non-Toxic
- IC50 [14]: > 5 µM
- inhibition at 1 µM [15]: 6%
- inhibition at 1 µM [16]: 1%
- inhibition at 1 µM [17]: 23%
- Activity [18]: Dose-dependent effect
- Activity [19]: Dose-dependent effect
- inhibition in vivo at 16 mg/kg [20]: 99%
- inhibition in vivo at 4 mg/kg [21]: 89%
- inhibition in vivo at 1 mg/kg [22]: 71%
- inhibition in vivo at 0.25 mg/kg [23]: 26%
- inhibition in vivo at 2 mg/kg [24]: 96%
- inhibition in vivo at 0.125 mg/kg [25]: 50%
- Time [26]: 6 h
- Time [27]: 12 h
- Activity [28]: Active
- Activity [29]: Active
- Activity [30]: Active
- Activity [31]: Active
- Activity [32]: Active
- CLhep predicted at 1 µM [33]: 9.4 mL/min/kg
- CLhep predicted at 1 µM [34]: 7.6 mL/min/kg
- logD [35]: 1.6
